Measurements as given in patent US20210386367A1, “DEVICES AND SYSTEMS FOR GASTROINTESTINAL MICROBIOME DETECTION AND MANIPULATION” (Progenity, Inc., priority 2018, published 2021).
Values after ≈ are worked out from the molar mass of the structure shown. “Also recorded” adds a separate entry of the source. Read-outs that look alike come from different tables or passages of the source.

How the values were obtained:
[1] = test system: Streptococcus spp. spontaneous mutants; conditions: S. pneumoniae ATCC 49619; CLSI QC range shown in parentheses; cited from earlier work
E. coli ATCC 25922 = experiment: Time-kill assay; format: cell-based, Escherichia coli; conditions: 2×, 4×, 8× MIC; 2, 6, 24 hr
Klebsiella spp. = experiment: Broth microdilution MIC, 50 clinical isolates (20 K. oxytoca, 30 K. pneumoniae); format: cell-based
Protocol: Minimal inhibitory concentration (MIC) values were determined by broth microdilution or agar dilution in accordance with guidelines from the Clinical and Laboratory Standards Institute (CLSI; (1) “Methods for Dilution Antimicrobial Susceptibility Tests for Bacteria That Grow Aerobically; Approved Standard; 11th ed.” CLSI standard M07-A11, 2018; (2) “Performance Standards for Antimicrobial Susceptibility Testing; Twenty-Eighth Informational Supplement,” CLSI document M100-S28, 2018; and (3) “Methods for Antimicrobial Susceptibility Testing of Anaerobic Bacteria; Approved Standard—Eighth Edition,” CLSI document M11-A8, 2012).
Tested aerobically by broth microdilution: • Escherichia coli, n=50 • Klebsiella spp., n=50 • Pseudomonas aeruginosa, n=50 • Streptococcus spp., n=50 • Staphylococcus aureus, n=50 • Enterococcus faecalis, n=50 • Enterobacter aerogenes, n=50 • Proteus mirabilis, n=50
Broth microdilution testing of aerobic bacteria was conducted in cation-adjusted Mueller Hinton broth (MHBII). For testing streptococci, lysed horse blood (LHB) was added to MHBII broth at a final concentration of 3%. Where LHB was used, it was added after filtering.
Broth microdilution susceptibility testing in 96-well microplates was conducted in accordance with CLSI methods (1) and (2). Automated liquid handlers were used to conduct serial dilutions and liquid transfers, including the Multidrop 384 (Labsystems, Helsinki, Finland), Biomek 2000, and the Biomek FX (Beckman Coulter, Fullerton, Calif.). All wells in columns 2 through 12 of a standard 96-well microdilution plate (Costar 3795) were filled with 150 μL of the appropriate diluent. Then, 300 μL of the test agents were added to the wells of column 1 of the plates at 100× the highest final concentration to be tested. Serial two-fold dilutions were made across the rows through column 11 using the Biomek 2000. The wells of column 12 contained no drug and served as the growth control wells. This plate served as the “mother plate” from which MIC assay plates or “daughter plates” were made.
The daughter plates were loaded with 190 μL per well of the appropriate medium using the Multidrop 384. The daughter plates were created using the Biomek FX which transferred 2 μL of drug solution from each well of a mother plate to each corresponding well of the daughter plate in a single step. A standardized inoculum of each test organism was prepared per CLSI methods (1) to equal a 0.5 McFarland standard, followed by a dilution of 1:20 for aerobes and 1:10 for anaerobes. The plates were then inoculated with 10 μL of the diluted inoculum using the Biomek 2000 from low to high drug concentration, resulting in a final concentration of approximately 5×10^5 CFU/mL per well. An un-inoculated plate was incubated in parallel for each medium for the purpose of assessing solubility of the drug in the test media.
Inoculated plates were stacked 3 or 4 high, covered with a sterile lid on the top plate, placed into boxes with CO2 planchets (streptococci) or plastic bags (all other isolates). Plates were incubated at 35° C. for 16-24 hr in ambient air for aerobes or for 42-48 hr in the anaerobic environment of the Bactron II anaerobe chamber (Sheldon Manufacturing Co.; Cornelius, Oreg.). Following incubation, the microplates were removed from the incubator and viewed from the bottom using a plate viewer. The MIC values were read and recorded as the lowest concentration of drug that inhibited visible growth of the organism as per CLSI methods (1) and (2).

Veillonella spp. = experiment: Agar dilution MIC, 30 clinical isolates; format: cell-based; conditions: for Mode: modal MIC
[2] = 30 Veillonella spp. clinical isolates

## C[C@@H](O)[C@H]1C(=O)N2C(C(=O)O)=C(S[C@@H]3CN[C@H](C(=O)N(C)C)C3)[C@H](C)[C@H]12 [meropenem]
[1]
  MIC, CLSI QC range: (0.03-0.25) μg/mL
E. coli ATCC 25922
  time-kill kinetics outcome (bactericidal = ≥3 log reduction in CFU per mL): rapid killing and bactericidal activity at the two higher concentrations at 24 hr
Klebsiella spp.
  % R: Sixteen
  % S: 84%
  Mode: 0.015 µg/mL
  relative activity among drugs tested: most active drug evaluated; also recorded: MIC50 value for meropenem was the lowest
Klebsiella spp.; 0.015 μg/mL
  Cumulative percentage of isolates at MIC: 58.0%
  Number of test isolates at MIC: 27
Klebsiella spp.; 0.03 μg/mL
  Cumulative percentage of isolates at MIC: 80.0%
  Number of test isolates at MIC: 11
Klebsiella spp.; 0.06 μg/mL
  Cumulative percentage of isolates at MIC: 82.0%
  Number of test isolates at MIC: 1
Klebsiella spp.; 0.5 μg/mL
  Cumulative percentage of isolates at MIC: 84.0%
  Number of test isolates at MIC: 1
Klebsiella spp.; 8 μg/mL
  Cumulative percentage of isolates at MIC: 88.0%
  Number of test isolates at MIC: 2
Klebsiella spp.; >8 μg/mL
  Cumulative percentage of isolates at MIC: 100.0%
  Number of test isolates at MIC: 6
Klebsiella spp.; Klebsiella, read-out: MIC50
  MIC50: 0.015 µg/mL (≈ 0.0391 µM)
Klebsiella spp.; Klebsiella, read-out: MIC90
  MIC90: > 8 µg/mL
Klebsiella spp.; listed as MEM
  % R: 16%
  MIC90: >8 µg/mL
Klebsiella spp.; ≤0.008 μg/mL
  Cumulative percentage of isolates at MIC: 4.0%
  Number of test isolates at MIC: 2
Veillonella spp.
  isolates with intermediate resistance: Twenty-three
  relative activity among drugs tested: most active drug evaluated; also recorded: most active agent
Veillonella spp.; [2]
  % I: 23%
  % S: 77%
  MIC50: 1 µg/mL (≈ 2.61 µM)
  MIC90: 8 µg/mL (≈ 20.9 µM)
  MIC range: 0.12 to 8 µg/mL
  Mode: 0.12 µg/mL
Veillonella spp.; Veillonella, read-out: MIC50
  MIC50: 1 µg/mL (≈ 2.61 µM)
Veillonella spp.; Veillonella, read-out: MIC90
  MIC90: 8 µg/mL (≈ 20.9 µM)

## piperacillin/tazobactam [piperacillin-tazobactam]
Klebsiella spp.
  % I: 2%
  % R: 24%
  % S: 74%
  MIC50: 4 µg/mL
  MIC90: >128 µg/mL
  Mode: 2 µg/mL
Klebsiella spp.; 0.5 μg/mL
  Cumulative percentage of isolates at MIC: 4.0%
  Number of test isolates at MIC: 2.
Klebsiella spp.; 1 μg/mL
  Cumulative percentage of isolates at MIC: 14.0%
  Number of test isolates at MIC: 5
Klebsiella spp.; 2 μg/mL
  Cumulative percentage of isolates at MIC: 48.0%
  Number of test isolates at MIC: 17
Klebsiella spp.; 4 μg/mL
  Cumulative percentage of isolates at MIC: 58.0%
  Number of test isolates at MIC: 5
Klebsiella spp.; 8 μg/mL
  Cumulative percentage of isolates at MIC: 68.0%
  Number of test isolates at MIC: 5
Klebsiella spp.; 16 μg/mL
  Cumulative percentage of isolates at MIC: 74.0%
  Number of test isolates at MIC: 3
Klebsiella spp.; 64 μg/mL
  Cumulative percentage of isolates at MIC: 76.0%
  Number of test isolates at MIC: 1
Klebsiella spp.; 128 μg/mL
  Cumulative percentage of isolates at MIC: 78.0%
  Number of test isolates at MIC: 1
Klebsiella spp.; >128 μg/mL
  Cumulative percentage of isolates at MIC: 100.0%
  Number of test isolates at MIC: 11

## Penicillin
[1]
  MIC, CLSI QC range: (0.06-0.25) μg/mL

## CO[C@H]1/C=C/O[C@@]2(C)Oc3c(C)c(O)c4c(O)c(c5c(nc6cc(C)ccn65)c4c3C2=O)NC(=O)/C(C)=C\C=C\[C@H](C)[C@H](O)[C@@H](C)[C@@H](O)[C@@H](C)[C@H](OC(C)=O)[C@@H]1C [rifaximin]
E. coli ATCC 25922
  time-kill kinetics outcome (bactericidal = ≥3 log reduction in CFU per mL): bacteriostatic effect at 2-6 hr with regrowth between 6 and 24 hr
Klebsiella spp.
  MIC50: 32 µg/mL (≈ 40.7 µM)
  MIC90: > 64 µg/mL
  Mode: 16 µg/mL
Klebsiella spp.; 8 μg/mL
  Cumulative percentage of isolates at MIC: 10.0%
  Number of test isolates at MIC: 5
Klebsiella spp.; 16 μg/mL
  Cumulative percentage of isolates at MIC: 46.0%
  Number of test isolates at MIC: 18
Klebsiella spp.; 32 μg/mL
  Cumulative percentage of isolates at MIC: 64.0%
  Number of test isolates at MIC: 9
Klebsiella spp.; 64 μg/mL
  Cumulative percentage of isolates at MIC: 80.0%
  Number of test isolates at MIC: 8
Klebsiella spp.; >64 μg/mL
  Cumulative percentage of isolates at MIC: 100.0%
  Number of test isolates at MIC: 10
Klebsiella spp.; listed as RFX
  MIC90: >64 µg/mL
Veillonella spp.
  MIC50: 4 µg/mL (≈ 5.09 µM)
  MIC90: 8 µg/mL (≈ 10.2 µM)
Veillonella spp.; [2]
  MIC50: 4 µg/mL (≈ 5.09 µM)
  MIC90: 8 µg/mL (≈ 10.2 µM)
  MIC range: 0.12 to 16 µg/mL
  Mode: 2 µg/mL

## Cc1ncc([N+](=O)[O-])n1CCO [MTZ]
Veillonella spp.; [2]
  % R: 17%
  % S: 83%
  MIC50: 4 µg/mL (≈ 23.4 µM)
  MIC90: >32 µg/mL
  Mode: 4 µg/mL

## COc1c(N2C[C@@H]3CCCN[C@@H]3C2)c(F)cc2c(=O)c(C(=O)O)cn(C3CC3)c12 [moxifloxacin]
Klebsiella spp.
  MIC range: 0.015 to 128 µg/mL
  Mode: 0.06 µg/mL
Klebsiella spp.; 0.015 μg/mL
  Cumulative percentage of isolates at MIC: 2.0%
  Number of test isolates at MIC: 1
Klebsiella spp.; 0.03 μg/mL
  Cumulative percentage of isolates at MIC: 8.0%
  Number of test isolates at MIC: 3
Klebsiella spp.; 0.06 μg/mL
  Cumulative percentage of isolates at MIC: 56.0%
  Number of test isolates at MIC: 24
Klebsiella spp.; 0.5 μg/mL
  Cumulative percentage of isolates at MIC: 77.0%
  Number of test isolates at MIC: 2
Klebsiella spp.; 1 μg/mL
  Cumulative percentage of isolates at MIC: 74.0%
  Number of test isolates at MIC: 1
Klebsiella spp.; 2 μg/mL
  Cumulative percentage of isolates at MIC: 80.0%
  Number of test isolates at MIC: 3
Klebsiella spp.; 4 μg/mL
  Cumulative percentage of isolates at MIC: 84.0%
  Number of test isolates at MIC: 2
Klebsiella spp.; 16 μg/mL
  Cumulative percentage of isolates at MIC: 88.0%
  Number of test isolates at MIC: 2
Klebsiella spp.; 32 μg/mL
  Cumulative percentage of isolates at MIC: 94.0%
  Number of test isolates at MIC: 3
Klebsiella spp.; 64 μg/mL
  Cumulative percentage of isolates at MIC: 96.0%
  Number of test isolates at MIC: 1
Klebsiella spp.; 128 μg/mL
  Cumulative percentage of isolates at MIC: 100.0%
  Number of test isolates at MIC: 2
Klebsiella spp.; Klebsiella, read-out: MIC50
  MIC50: 0.06 µg/mL (≈ 0.149 µM)
Klebsiella spp.; Klebsiella, read-out: MIC90
  MIC90: 32 µg/mL (≈ 79.7 µM)
